According to patent US7687609B2, “Galectin-glycosaminoglycan complex and method for controlling galectin activity” (National Institute of Advanced Industrial Science and …, priority 2006, dated 2010):

Legend:
Format in all cases: binding
Galectin-1 = target: T1, Galectin-1 (Homo sapiens, UniProt P09382); test: FAC affinity test on galectin-immobilized column; settings: for V − V0 Value: pyridyl-aminated carbohydrate, galectin-1 immobilized 0.8 mg/ml, less than 5 μl = below interaction detection limit; for binding to galectin-1 (in words): text statement on the FAC results
T1 construct: made in house
T1 sequence (P09382 whole entry): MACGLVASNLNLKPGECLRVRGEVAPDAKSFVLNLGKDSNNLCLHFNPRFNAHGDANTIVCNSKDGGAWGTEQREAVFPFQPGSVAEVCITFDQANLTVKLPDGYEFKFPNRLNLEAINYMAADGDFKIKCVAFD
Procedure: (§1) Various galectin molecules-immobilized columns were prepared by the method described by Nakamura S, Yagi F, Totani K, Ito γ and Hirabayashi J in FEBS J., 272, 2784-2799 (2005), using NHS Sepharose (manufactured by Amersham Bioscience) as the carrier for immobilizing galectin molecules and in accordance with the instructions attached thereto (put in parentheses is immobilization concentration, mg galectin/ml carrier).
(§2) Each galectin molecule was immobilized onto the carrier at the following concentration; galectin-1 (0.8 mg/ml), galectin-3 (0.5 mg/ml), galectin-8N (3.6 mg/ml), galectin-8C (4.0 mg/ml), galectin-9N (3.6 mg/ml), galectin-9C (3.0 mg/ml). The carrier on which each galectin was immobilized was charged into a stainless steel miniature column (2 mm in inner diameter, 10 mm in length; manufactured by Shimadzu Corp.).
(§3) A high performance liquid chromatography (HPLC) system was equipped with a galectin molecule-immobilized column, and the test was carried out by the method described in Nakamura S, Yagi F, Totani K, Ito γ and Hirabayashi J in FEBS J., 272, 2784-2799 (2005).
(§4) As the negative control sample, pyridyl-aminated N-acetylglucosamine (PA-GlcNAc, manufactured by Takara Bio, pyridyl-aminated glycosaminoglycan-oligosaccharide sample control) or pyridyl-aminated pullulan (prepared by carrying out pyridylamination of standard pullulan manufactured by Shodex, pyridyl-aminated glycosaminoglycan polysaccharide sample control) was used, and a V−V0 value was calculated from their eluate volume (V0 value) measured by fluorescence detection and the eluate volume (V value) of the sample, namely pyridyl-aminated glycosaminoglycan carbohydrate, and this was used as the index of interaction strength (Protein, Nucleic Acid and Enzyme, 48(8), 1206-1212 (2003)).
(§5) V−V0 values of pyridyl-aminated glycosaminoglycans (HA, CH, DN, NAH, CSA, CSB, CSC, CSD, CSE, KS-I and KS-II) were calculated based on PA-GlcNAc, and V−V0 values of pyridyl-aminated glycosaminoglycan-oligosaccharides (G2K1, G1L1, G4L4, L2L2, L2L4, L4L4, SL2L4 and CH3 to CH12) based on pyridyl-aminated pullulan, respectively.
(§6) In this connection, when the calculated value of the V−V0 value was less than 5 μl, it was regarded as less than the interaction detection limit in this example.

Galectin-3 = target: T2, Galectin-3 (Homo sapiens, UniProt P17931); test: FAC affinity test on galectin-immobilized column; settings: for V − V0 Value: pyridyl-aminated carbohydrate, galectin-3 immobilized 0.5 mg/ml, less than 5 μl = below interaction detection limit; for binding to galectin-3 (in words): text statement on the FAC results
T2 construct: made in house
T2 sequence (P17931 whole entry): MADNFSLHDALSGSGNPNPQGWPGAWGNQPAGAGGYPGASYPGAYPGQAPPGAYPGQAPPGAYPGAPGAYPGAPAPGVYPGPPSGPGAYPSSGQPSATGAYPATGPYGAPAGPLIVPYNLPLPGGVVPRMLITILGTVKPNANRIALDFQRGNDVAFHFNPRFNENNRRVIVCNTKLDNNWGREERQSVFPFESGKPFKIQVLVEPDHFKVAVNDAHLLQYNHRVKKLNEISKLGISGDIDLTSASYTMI
Procedure: as §1, §2, §3, §4, §5, §6

Galectin-8C = target: T3, Galectin-8C (Homo sapiens, UniProt O00214); test: FAC affinity test on galectin-immobilized column; settings: pyridyl-aminated carbohydrate; galectin-8C immobilized 4.0 mg/ml; less than 5 μl = below interaction detection limit
T3 construct: N and C respectively represent N-terminal side carbohydrate-recognition domain and C-terminal side carbohydrate-recognition domain; made in house
T3 sequence (O00214 187-317 limits assumed): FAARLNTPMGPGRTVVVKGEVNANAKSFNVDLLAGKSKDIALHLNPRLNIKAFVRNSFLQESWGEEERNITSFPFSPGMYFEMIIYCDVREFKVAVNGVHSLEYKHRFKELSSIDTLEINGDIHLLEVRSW
Procedure: as §1, §2, §3, §4, §5, §6

Galectin-8N = target: T4, Galectin-8N (Homo sapiens, UniProt O00214); test: FAC affinity test on galectin-immobilized column; settings: pyridyl-aminated carbohydrate; galectin-8N immobilized 3.6 mg/ml; less than 5 μl = below interaction detection limit
T4 construct: N and C respectively represent N-terminal side carbohydrate-recognition domain and C-terminal side carbohydrate-recognition domain; made in house
T4 sequence (O00214 19-152 limits assumed): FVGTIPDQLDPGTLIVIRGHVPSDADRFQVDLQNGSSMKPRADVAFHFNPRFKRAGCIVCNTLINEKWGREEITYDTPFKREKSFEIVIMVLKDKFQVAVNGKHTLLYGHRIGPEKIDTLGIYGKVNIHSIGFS
Procedure: as §1, §2, §3, §4, §5, §6

Galectin-9C = target: T5, Galectin-9C (Homo sapiens, UniProt O00182); test: FAC affinity test on galectin-immobilized column; settings: for V − V0 Value: pyridyl-aminated carbohydrate, galectin-9C immobilized 3.0 mg/ml, less than 5 μl = below interaction detection limit; for binding to galectin-9C (in words): text statement on the FAC results
T5 construct: N and C respectively represent N-terminal side carbohydrate-recognition domain and C-terminal side carbohydrate-recognition domain; made in house
T5 sequence (O00182 227-355 limits assumed): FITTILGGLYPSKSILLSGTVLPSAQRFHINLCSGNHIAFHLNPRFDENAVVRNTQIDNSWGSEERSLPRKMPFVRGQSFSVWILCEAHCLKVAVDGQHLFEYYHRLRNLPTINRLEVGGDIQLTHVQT
Procedure: as §1, §2, §3, §4, §5, §6

Galectin-9N = target: T6, Galectin-9N (Homo sapiens, UniProt O00182); test: FAC affinity test on galectin-immobilized column; settings: for V − V0 Value: pyridyl-aminated carbohydrate, galectin-9N immobilized 3.6 mg/ml, less than 5 μl = below interaction detection limit; for binding to galectin-9N (in words): text statement on the FAC results
T6 construct: N and C respectively represent N-terminal side carbohydrate-recognition domain and C-terminal side carbohydrate-recognition domain; made in house
T6 sequence (O00182 17-148 limits assumed): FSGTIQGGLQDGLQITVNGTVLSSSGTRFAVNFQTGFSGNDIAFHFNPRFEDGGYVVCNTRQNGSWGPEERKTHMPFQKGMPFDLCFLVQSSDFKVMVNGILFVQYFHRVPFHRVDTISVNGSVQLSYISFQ
Procedure: as §1, §2, §3, §4, §5, §6

[1] = system: tested galectin molecules (galectin-1, 3, 8N, 8C, 9N and 9C); test: FAC affinity test, statements on the whole panel of tested galectins; settings: Table 3, whole galectin panel
From the text: Using FAC, the present inventors have conducted a comprehensive analysis of the interactions between various galectin molecules (galectin-1, 3, 8N, 8C, 9N and 9C; N and C respectively represent N-terminal side carbohydrate-recognition domain and C-terminal side carbohydrate-recognition domain)-immobilized columns and various fluorescence-labeled glycosaminoglycan molecules. As a result, novel affinity was found by the combination of specific galectin molecules and glycosaminoglycan molecules to thereby accomplish the present invention.
as §3, §4, §6

V − V0 Value (Galectin-1)	V − V0 Value (Galectin-3)	V − V0 Value (Galectin-8C)	V − V0 Value (Galectin-8N)	V − V0 Value (Galectin-9C)	V − V0 Value (Galectin-9N)	binding to the tested galectin molecules (in words) [1]	binding to galectin-1 (in words) (Galectin-1)	binding to galectin-3 (in words) (Galectin-3)	binding to galectin-9C (in words) (Galectin-9C)	binding to galectin-9N (in words) (Galectin-9N)	Compound
<5.0 µL	<5.0 µL	<5.0 µL	<5.0 µL	<5.0 µL	<5.0 µL	did not bind	–	–	–	–	CC(=O)N[C@H]1[C@H](O[C@H]2[C@@H](O)[C@@H](COS(=O)(=O)O)O[C@@H](O[C@H]3[C@H](O)[C@@H](NC(C)=O)C(O)O[C@@H]3COS(=O)(=O)O)[C@@H]2O)O[C@H](COS(=O)(=O)O)[C@@H](O)[C@@H]1O (stereo partly drawn) [G4L4, GlcNAc6S β1-3 Gal6S β1-4 GlcNAc6S]
5.8 ± 0.2 µL	15.8 ± 1.8 µL	<5.0 µL	<5.0 µL	5.3 ± 0.7 µL	6.6 ± 1.4 µL	bound to various galectin molecules	showed binding affinity	showed binding affinity	showed binding affinity	showed binding affinity	CC(=O)N[C@H]1[C@H](O[C@H]2[C@@H](O)[C@@H](COS(=O)(=O)O)O[C@@H](O[C@H]3[C@H](O)[C@@H](NC(C)=O)C(O)O[C@@H]3COS(=O)(=O)O)[C@@H]2O)O[C@H](COS(=O)(=O)O)[C@@H](O[C@@H]2O[C@H](CO)[C@H](O)[C@H](O)[C@H]2O)[C@@H]1O (stereo partly drawn) [L2L4, Gal β1-4 GlcNAc6S β1-3 Gal6S β1-4 GlcNAc6S]
21.8 ± 1.9 µL	11.6 ± 0.1 µL	<5.0 µL	<5.0 µL	6.7 ± 0.2 µL	5.1 ± 1.3 µL	bound to various galectin molecules	showed binding affinity	showed binding affinity	showed binding affinity	showed binding affinity	CC(=O)N[C@H]1[C@H](O[C@H]2[C@@H](O)[C@@H](CO)OC(O)[C@@H]2O)O[C@H](CO)[C@@H](O[C@@H]2O[C@H](CO)[C@H](O)[C@H](O)[C@H]2O)[C@@H]1O (stereo partly drawn) [G2K1, Gal β1-4 GlcNAc β1-3 Gal]
<5.0 µL	<5.0 µL	<5.0 µL	<5.0 µL	<5.0 µL	<5.0 µL	did not bind	–	–	–	–	chondroitin sulfate D [CSD, reference compound]
<5.0 µL	<5.0 µL	<5.0 µL	<5.0 µL	<5.0 µL	<5.0 µL	did not bind	–	–	–	–	Hyaluronan [HA, reference compound]
<5.0 µL	<5.0 µL	<5.0 µL	<5.0 µL	<5.0 µL	<5.0 µL	did not bind	–	–	–	–	CC(=O)NC1C(O)OC(COS(=O)(=O)[O-])C(OC2OC(COS(=O)(=O)[O-])C(O)C(OC3OC(COS(=O)(=O)[O-])C(OC4OC(COS(=O)(=O)[O-])C(O)C(O)C4O)C(O)C3NC(C)=O)C2O)C1O.[Na+].[Na+].[Na+].[Na+] (stereo not drawn) [L4L4, Gal6S β1-4 GlcNAc6S β1-3 Gal6S β1-4 GlcNAc6S]
<5.0 µL	<5.0 µL	<5.0 µL	<5.0 µL	<5.0 µL	<5.0 µL	did not bind	–	–	–	–	dermatan sulfate [CSB, reference compound]
<5.0 µL	14.2 ± 1.3 µL	<5.0 µL	<5.0 µL	<5.0 µL	13.6 ± 0.5 µL	bound to various galectin molecules	–	showed binding affinity	–	showed binding affinity	CC(=O)N[C@H]1[C@H](O[C@H]2[C@@H](O)[C@@H](CO)O[C@@H](O[C@H]3[C@H](O)[C@@H](NC(C)=O)C(O)O[C@@H]3CO)[C@@H]2O)O[C@H](CO)[C@@H](O)[C@@H]1O (stereo partly drawn) [G1L1, GlcNAc β1-3 Gal β1-4 GlcNAc]
6.2 ± 1.7 µL	22.6 ± 1.1 µL	<5.0 µL	<5.0 µL	7.7 ± 0.4 µL	8.8 ± 0.3 µL	bound to various galectin molecules	showed binding affinity	showed binding affinity	showed binding affinity	showed binding affinity	Gal β1-4 GlcNAc6S β1-3 Gal β1-4 GlcNAc6S [L2L2]
<5.0 µL	<5.0 µL	<5.0 µL	<5.0 µL	<5.0 µL	<5.0 µL	did not bind	–	–	–	–	chondroitin sulfate E [CSE, reference compound]

Compound	V − V0 Value (Galectin-1)	V − V0 Value (Galectin-3)	V − V0 Value (Galectin-8C)	V − V0 Value (Galectin-8N)	V − V0 Value (Galectin-9C)	V − V0 Value (Galectin-9N)	binding to the tested galectin molecules (in words) [1]	binding to galectin-1 (in words) (Galectin-1)	binding to galectin-3 (in words) (Galectin-3)	binding to galectin-9C (in words) (Galectin-9C)	binding to galectin-9N (in words) (Galectin-9N)
chondroitin sulfate A [CSA, reference compound]	<5.0 µL	<5.0 µL	<5.0 µL	<5.0 µL	<5.0 µL	<5.0 µL	did not bind	–	–	–	–
